Assay results reported in patent US6472166B1, “Method for determining the effects of a growth-altering agent on a microbial colony” (Wardlaw Partners LP, priority 2000, dated 2002).

Columns and labels:
Assay type in all cases: cell-based
E. coli = assay: Microcolony growth imaging of E. coli on Kirby-Bauer type growth medium; conditions: 2 μg/ml, two-hour incubation, E. coli microcolonies, FIG. 2D
Method: (§1) FIGS. 2A-2D, 3A-3D, and 4A-4D show digital images of various microorganisms exposed to different growth-altering agents. Here again, the images contained in panels “A” and “B” of each FIGURE were taken immediately after inoculation, and the images contained in panels “C” and “D” of each FIGURE were taken after about two hours of incubation. None of the images in FIGS. 2A-2D, 3A-3D, and 4A-4D are enhanced by digital processing. The images contained in panels “B” and “D” of each FIGURES show regions of the growth medium that have been exposed to a growth-altering agent. The images contained in panels “A” and “C” of each FIGURE have not been exposed to a growth-altering agent and can be used as control reference areas.
The images contained in FIGS. 2A and 2B show regions of a Kirby-Bauer type growth medium immediately after inoculation with E. coli. The images contained in FIGS. 2C and 2D show the same regions after a two-hour incubation period. […] If it is desired to find the threshold of microbial sensitivity, such as is done to determine the minimum inhibitory concentration (MIC), then a series of separate regions each containing a certain concentration of the growth-altering agent may be used and the relative growth in each separate region evaluated. […]

E. faecium = assay: Microcolony growth imaging of E. faecium on Kirby-Bauer type growth medium; conditions: 2 μg/ml, two-hour incubation, E. faecium microcolonies, FIG. 4D
Method: as §1
The images contained in FIGS. 4A and 4B show regions of a Kirby-Bauer type growth medium immediately after inoculation with E. faecium. The images contained in FIGS. 4C and 4D show the same regions after a two-hour incubation period.

E. faecalis = assay: Microcolony growth imaging of E. faecalis on Kirby-Bauer type growth medium; conditions: 2 μg/ml, two-hour incubation, E. faecalis microcolonies, FIG. 3D
Method: as §1
The images contained in FIGS. 3A and 3B show regions of a Kirby-Bauer type growth medium immediately after inoculation with E. faecalis. The images contained in FIGS. 3C and 3D show the same regions after a two-hour incubation period.

CO/N=C(\C(=O)N[C@@H]1C(=O)N2C(C(=O)O)=C(COC(C)=O)CS[C@H]12)c1csc(N)n1 [cefotaxime] was tested, and the “microcolony perimeter/area ratio characteristic” value (E. coli) was “increased perimeter/area ratio characteristic”.

With CN[C@H](CC(C)C)C(=O)N[C@H]1C(=O)N[C@@H](CC(N)=O)C(=O)N[C@H]2C(=O)N[C@H]3C(=O)N[C@H](C(=O)N[C@H](C(=O)O)c4cc(O)cc(O)c4-c4cc3ccc4O)[C@H](O)c3ccc(c(Cl)c3)Oc3cc2cc(c3O[C@@H]2O[C@H](CO)[C@@H](O)[C@H](O)[C@H]2O[C@H]2C[C@](C)(N)[C@H](O)[C@H](C)O2)Oc2ccc(cc2Cl)[C@H]1O [vancomycin] the microcolony growth (E. faecium) was “show detectable growth” and the microcolony growth (E. faecalis) was “do not appear to exhibit any growth”.
